Where two headings read alike, the source gives them in different places.
Tests used:
[1] = Plasma TPTD concentration and pharmacokinetics (Rat PTH IRMA Kit, non-compartmental model); type: in vivo, rabbit; conditions: for level at 1 h / level at 2 h / level at 5 min / level at 0.25 h / level at 0.5 h: female, New Zealand White (Kbl:NZW), rabbit, plasma, sc, IRMA, mean; for AUC / Cmax / Tmax / half-life: in vivo; for half-life: read-out: T1/2 (elimination half-life) of plasma TPTD (converted)
Excerpt: Seventeen female New Zealand White rabbits (Kbl:NZW) were purchased from Kitayama Labs (Nagano, Japan) and were allowed to acclimatize with free access to water and food for 6 days before use. Throughout the experimental study, the animals were housed individually under a 12-h light/dark cycle with free access to water, but their food intake was restricted to 120g /day (LRC4, standard diet for rabbits; Oriental Yeast, Tokyo, Japan). The animals at 6 months of age were divided into 5 groups and were subcutaneously injected with 20 or 40 μg/kg of TPTD once-daily (D20 group [n = 3] and D40 group [n = 3], 140 or 280 μg/kg of TPTD once-weekly (W140 group [n = 3] and W280 group [n = 4]) for four weeks (Table 1). For the high-dose administration of TPTD, the dosage in once-daily treatment was set at 40 μg/kg/day based on a previous study, while the dosage of once-weekly TPTD treatment was set at 280 μg/kg/week; thus, the cumulative dose of TPTD each week was the same with the two treatment frequencies. In the W140 and W280 groups, saline was administered every day, except for the days on which TPTD was administered. Saline injections were administered to control animals (C group, n = 4) once daily and to each group as a vehicle.
[…] The samples were centrifuged at 1600 x g, at 4°C for 10 minutes and plasma samples were collected in order to measure the concentration of TPTD. […]
Teriparatide acetate was synthesized at Asahi Kasei Pharma Corporation (Tokyo, Japan) and was used as a standard substance. The teriparatide acetate concentration in the rabbit plasma was quantified using a Rat PTH IRMA Kit (Immutopics, Inc., San Clemente, CA) according to the manufacturer’s instructions. The pharmacokinetic parameters were calculated using a non-compartmental model (Phoenix WinNonlin; Pharsight, Mountain View, CA).

[2] = tested on: kidneys, thyroid and parathyroid; test: Histopathological examination of kidney, thyroid and parathyroid; conditions: rabbit, in vivo
Experimental: Calcein (Dojindo Laboratories, Kumamoto, Japan) was subcutaneously injected into each animal at a dose of 10 mg/kg body weight on days 13 and 5 before sacrifice for bone double labeling (1-7-1-3). After the dosing period, the animals were euthanized by exsanguination under anesthesia using thiopental. The left and right tibiae were collected for a micro-CT analysis and histomorphometry, respectively. The kidneys, thyroid and parathyroid of all animals were collected and fixed in 10% neutral buffered formalin for a histopathological examination. The left tibiae were packed in plastic bags and stored at -30°C until use in a micro-CT analysis and mechanical testing. The right tibiae were fixed in 70% ethanol, stained with Villanueva bone stain, dehydrated in a graded ethanol series, defatted in acetone, and embedded in polymethyl methacrylate (Wako Pure Chemical Industries, Osaka, Japan). Thin ground sections of 10–20 μm in thickness were prepared using a micro cutting machine and a grinding machine (EXAKT, Germany) from a cross-section at a plane that was 3 mm proximal from the tibiofibular junction, and were subjected to bone histomorphometry. Right iliac crest were also fixed in 70% ethanol and processed for Vilanueva bone stain, dehydration, defattation, polymethyl methacrylate embedding and sectioning to 5 μm for three-dimensional second harmonic generation (3D-SHG) imaging. […]

[3] = 20 ug/kg, rabbit plasma, D20 (20 μg/kg sc once-daily), n=3, mean ± SD
[4] = 40 ug/kg, rabbit plasma, D40 (40 μg/kg sc once-daily), n=3, mean ± SD
[5] = 140 ug/kg, rabbit plasma, W140 (140 μg/kg sc once-weekly), n=3, mean ± SD
[6] = 280 ug/kg, rabbit plasma, W280 (280 μg/kg sc once-weekly), n=4, mean ± SD

For `CC[C@H](C)[C@H](NC(=O)[C@H](CCC(=O)O)NC(=O)[C@H](CO)NC(=O)[C@@H](NC(=O)[C@@H](N)CO)C(C)C)C(=O)N[C@@H](CCC(N)=O)C(=O)N[C@@H](CC(C)C)C(=O)N[C@@H](CCSC)C(=O)N[C@@H](Cc1cnc[nH]1)C(=O)N[C@@H](CC(N)=O)C(=O)N[C@@H](CC(C)C)C(=O)NCC(=O)N[C@@H](CCCCN)C(=O)N[C@@H](Cc1cnc[nH]1)C(=O)N[C@@H](CC(C)C)C(=O)N[C@@H](CC(N)=O)C(=O)N[C@@H](CO)C(=O)N[C@@H](CCSC)C(=O)N[C@@H](CCC(=O)O)C(=O)N[C@@H](CCCN=C(N)N)C(=O)N[C@H](C(=O)N[C@@H](CCC(=O)O)C(=O)N[C@@H](Cc1c[nH]c2ccccc12)C(=O)N[C@@H](CC(C)C)C(=O)N[C@@H](CCCN=C(N)N)C(=O)N[C@@H](CCCCN)C(=O)N[C@@H](CCCCN)C(=O)N[C@@H](CC(C)C)C(=O)N[C@@H](CCC(N)=O)C(=O)N[C@@H](CC(=O)O)C(=O)N[C@H](C(=O)N[C@@H](Cc1cnc[nH]1)C(=O)N[C@@H](CC(N)=O)C(=O)N[C@@H](Cc1ccccc1)C(=O)O)C(C)C)C(C)C` [TPTD, Teriparatide], the level at 1 h ([1]; 140 ug/kg, Day 22, 1 hour, W140 (140 μg/kg sc once-weekly), n=3) was 147 ng/mL, the level at 2 h ([1]; 140 ug/kg, Day 22, 2 hour, W140 (140 μg/kg sc once-weekly), n=3) was 37.8 ng/mL and the level at 5 min ([1]; 280 ug/kg, Day 1, 5 min, W280 (280 μg/kg sc once-weekly), n=4) was 60.6 ng/mL. For the same molecule, the level at 0.25 h ([1]; 280 ug/kg, Day 1, 15 min, W280 (280 μg/kg sc once-weekly), n=4) was 177 ng/mL, the level at 0.5 h ([1]; 280 ug/kg, Day 1, 30 min, W280 (280 μg/kg sc once-weekly), n=4) was 295 ng/mL and the level at 1 h ([1]; 280 ug/kg, Day 1, 1 hour, W280 (280 μg/kg sc once-weekly), n=4) was 255 ng/mL. The level at 2 h ([1]; 280 ug/kg, Day 1, 2 hour, W280 (280 μg/kg sc once-weekly), n=4) was 87.4 ng/mL, the level at 5 min ([1]; 280 ug/kg, Day 22, 5 min, W280 (280 μg/kg sc once-weekly), n=4) was 67.7 ng/mL and the level at 0.25 h ([1]; 280 ug/kg, Day 22, 15 min, W280 (280 μg/kg sc once-weekly), n=4) was 232 ng/mL. It also gave a level at 0.5 h ([1]; 280 ug/kg, Day 22, 30 min, W280 (280 μg/kg sc once-weekly), n=4) of 356 ng/mL, a level at 1 h ([1]; 280 ug/kg, Day 22, 1 hour, W280 (280 μg/kg sc once-weekly), n=4) of 280 ng/mL and a level at 2 h ([1]; 280 ug/kg, Day 22, 2 hour, W280 (280 μg/kg sc once-weekly), n=4) of 62.4 ng/mL. It also gave an AUC [1, 3] of 21.1 ± 3.67 ng·h/mL, a Cmax [1, 3] of 19.8 ± 5.67 ng/mL and a Tmax [1, 3] of 30 min. It also gave a half-life ([1]; 20 ug/kg, rabbit plasma, D20 (20 μg/kg sc once-daily), n=3, non-compartmental, mean ± SD) of 26.4 ± 9 min, an AUC [1, 4] of 46.8 ± 10.7 ng·h/mL and a Cmax [1, 4] of 34.3 ± 8.19 ng/mL. For the same molecule, the Tmax [1, 4] was 30 min, the half-life ([1]; 40 ug/kg, rabbit plasma, D40 (40 μg/kg sc once-daily), n=3, non-compartmental, mean ± SD) was 55.8 ± 19.2 min and the AUC [1, 5] was 188 ± 35.5 ng·h/mL. For the same molecule, the Cmax [1, 5] was 133 ± 28 ng/mL, the Tmax [1, 5] was 40.2 ± 17.4 min and the half-life ([1]; 140 ug/kg, rabbit plasma, W140 (140 μg/kg sc once-weekly), n=3, non-compartmental, mean ± SD) was 55.8 ± 9.6 min. It also gave an AUC [1, 6] of 390 ± 75.6 ng·h/mL, a Cmax [1, 6] of 315 ± 67.8 ng/mL and a Tmax [1, 6] of 45 ± 17.4 min. The half-life ([1]; 280 ug/kg, rabbit plasma, W280 (280 μg/kg sc once-weekly), n=4, non-compartmental, mean ± SD) was 41.4 ± 16.2 min, the Tmax post-dose ([1]; rabbit plasma, D20 (20 μg/kg sc once-daily)) was 30 min and the Tmax post-dose ([1]; rabbit plasma, D40 (40 μg/kg sc once-daily)) was 30 min. The “estimated Tmax post-dose” value ([1]; rabbit plasma, W140 (140 μg/kg sc once-weekly)) was 40 min, the “T1/2 (elimination half-life) of plasma TPTD” value ([1]; rabbit plasma, W140 (140 μg/kg sc once-weekly), n=3, non-compartmental, mean ± SD) was 55.8 ± 9.6 min and the “estimated Tmax post-dose” value ([1]; rabbit plasma, W280 (280 μg/kg sc once-weekly)) was 45 min. For the same molecule, the “general histopathological examination, toxic effects” value [2] was “No obvious toxic effects were observed in any specimens”.

— article PMC5386260, “Acute development of cortical porosity and endosteal naïve bone formation from the daily but not weekly short-term administration of PTH in rabbit” (PLoS ONE, 2017)
